From patent US20230233695A1, “MITHRAMYCIN A NANOPARTICLES FOR CANCER TREATMENT” (priority 2021, published 2023)
Where “and” joins values, the source holds several entries; their conditions need not be identical. Equal values may be shown once.

Tests used:
[1] = test system: Rad51; assay: Western blotting, Rad51 protein expression; format: cell-based; settings: 10 nM, 24 hours
Experimental: (§1) Western Blotting. Expression Western blotting was performed to assess the expression of NR0B1 (EWS:Fli1 target gene) and Rad 51 (DNA homologous recombination repair HRR) at protein level as provisory described in Lin et al 2021. Briefly, cells were grown to ˜70% confluence and exposed to 10 nM of MithA/MANP (final concentration) or DMSO, (0.01% v/v) vehicle and blank polymer for 24 hours. Lysates were collected in cold RIPA lysis buffer supplemented with 1×HALT protease/phosphatase inhibitor cocktail (Thermo Scientific) and clarified by centrifugation. Protein concentration of the supernatant was determined by BCA assay (Thermo Scientific), and then diluted in 4× loading buffer (Licor Inc., Lincoln, Nebr.) containing 1× NuPAGE reducing agent (Life Technologies). Prior to electrophoresis, samples were denatured by incubating at 70° C. for 10 minutes. Samples were then resolved (25 μg/lane) on 4-20% gradient SDS-PAGE gels and transferred to low-fluorescence PVDF membranes (Bio-Rad Inc., Hercules Calif.). Transfer efficiency and equivalence of total protein load was assessed using Revert 700 Total Protein Stain kits (Licor Inc). Membranes were then washed, blocked in Odyssey Blocking Buffer (PBS) (Licor Inc), and incubated with primary antibodies (Table S4.3 above) overnight at 4° C. diluted in blocking buffer.

[2] = cited from earlier work
[3] = test system: Female C57BL/6J mice; assay: In vivo toxicity of MithA and MANP: body weight, death, morbidity
Experimental: (§2) In vivo toxicity of MithA and MANP. Cohorts of n=6-7 C57BL/6J females, 8-10 wko were randomized to receive either intravenous or intraperitoneal administration of saline control vehicle, blank polymer, MithA, or MANP as described in TABLES 2A and 2B. Body weight loss exceeding 20%, death, morbidity, changes in behavior, and any other sign of local or systemic toxicity were recorded.

[4] = test system: HEK293.T; assay: XTT cell viability assay, HEK293.T; format: cell-based; settings: Homo sapiens, HEK-293T, 72 h, read-out: Viability IC50
Experimental: (§3) Cell viability assays. For viability assays, four EWS:Fli1 fusion tumor cell lines (RD-ES, SK-ES-1, A673, and TC-71), one human embryonic kidney cell line (293.T), one ES tumor cell line with ERG fusion (CHLA-25), one fetal kidney cell line (HEK293.T), one hepatoblastoma cell line (HepG2), one chronic myeloid leukemia (MEG-01), and one acute monocytic leukemia (THP-1) cell line were plated at 5000 cells/well in 100 μL growth media in 96-well plates. After overnight incubation, 50 μL of growth media containing mithramycin A (MithA) (Cayman Chemical, Ann Arbor, Mi. Item Number 11434) or boronic acid-conjugated nano-MithA (MANP) (0.12 nM to 500 nM, final) or dimethyl sulfoxide (DMSO, 0.01% v/v) vehicle was added to the wells, and cell viability assays were performed 72 hours later. The cells were incubated with the activated-XTT solution (mixture of 2% final concentration of activation reagent with the XTT reagent) from ATCC (Catalog Number 30-1011K, XTT Cell Proliferation Assay Kit) for 3 hours prior to recording absorbance. The cell viability was determined by measuring the absorbance wavelength at 475 nm and reference wavelength at 650 nm on an Infinite M200 plate reader (Tecan Group, Ltd. Mannedorf, Switzerland). […]

[5] = test system: NR0B1; assay: Western blotting, NR0B1 protein expression; format: cell-based; settings: 10 nM, 24 hours; compared with saline control, p<0.0471
Experimental: as §1

[6] = test system: TC-71; assay: XTT cell viability assay, TC-71; format: cell-based; settings: TC-71, 72 h, read-out: Viability IC50
Experimental: as §3

[7] = test system: RD-ES; assay: XTT cell viability assay, RD-ES; format: cell-based; settings: 72 h, read-out: Viability IC50
Experimental: as §3

[8] = test system: Female C57BL/6J mice; assay: In vivo toxicity: serum chemistry
Experimental: as §2
For serum chemistry blood was collected through a 20G needle 24 h after the last dose, by cardiac puncture under isoflurane anesthesia. The blood was distributed to EDTA-coated (100 uL) or clot-activator (>200 uL) Multivette-600 tubes (Sarstedt, Newton, N.C.) respectively for hematology and serum chemistry analyses. For serum isolation, blood allowed to clot at room temperature for at least 20 minutes, centrifuged 10 kG for 10 minutes, aliquoted and frozen at −80° C. until analysis on a VetScan VS2 instrument (Zoetis, Parsippany-Troy Hills, N.J.) with Zoetis Preventive Profile Plus panel for chemistry.

[9] = test system: EWS:Fli1+ cells; assay: XTT cell viability assay, average over EWS:Fli1+ cell lines; format: cell-based; settings: read-out: average IC50 against EWS:Fli1+ cells
Experimental: as §3

[10] = test system: Female C57BL/6J mice; assay: In vivo toxicity: liver weight and histopathology
Experimental: as §2
The liver was harvested for histopathological assessment, weighed, and fixed in 4% paraformaldehyde for 24 hours in the 4° C. and processed for and embedded in paraffin. After embedding, sections were cut at […] thickness and mounted on poly-L-lysine-coated glass slides. Sections were stained with Ehrlich's Hematoxylin and Eosin-Phloxine solutions, Periodic Acid-Schiff (+/− pretreatment with 1% Diastase for 30 min), or Hall's Bile stain with Picrosirius red counter stain. Slides were then dehydrated, cover slipped and imaged on Nikon E800 microscope for qualitative assessment of liver injury. In vivo toxicity of Mitha and MANP study design. (A) study design for supplemental figures. (B) study design for FIGS. 11A-11Q.

[11] = single i.v. 4 mg/kg, within 48 hours
[12] = 5x2 mg/kg i.v., compared to saline vehicle
[13] = 5x4 mg/kg i.p., relative to saline vehicle
[14] = five doses 2 mg/kg (eq) on alternating days

CO[C@H](C(=O)[C@@H](O)[C@@H](C)O)[C@@H]1Cc2cc3cc(O[C@H]4C[C@@H](O[C@H]5C[C@@H](O)[C@H](O)[C@@H](C)O5)[C@H](O)[C@@H](C)O4)c(C)c(O)c3c(O)c2C(=O)[C@H]1O[C@H]1C[C@@H](O[C@H]2C[C@@H](O[C@H]3C[C@](C)(O)[C@H](O)[C@@H](C)O3)[C@@H](O)[C@@H](C)O2)[C@H](O)[C@@H](C)O1 [MithA, (2S,3S)-2-[(2S,4R,5R,6R)-4-[(2S,4R,5S,6R)-4-[(2S,4S,5R,6R)-4,5-dihydroxy-4,6-dimethyloxan-2-yl]oxy-5-hydroxy-6-methyloxan-2-yl]oxy-5-hydroxy-6-methyloxan-2-yl]oxy-3-[(1 S,3S,4R)-3,4-dihydroxy-1-methoxy-2-oxopentyl]-6-[(2S,4R,5R,6R)-4-[(2S,4R,5S,6R)-4,5-dihydroxy-6-methyloxan-2-yl]oxy-5-hydroxy-6-methyloxan-2-yl]oxy-8,9-dihydroxy-7-methyl-3,4-dihydro-2H-anthracen-1-one]
Rad51 protein expression [1]: Down-regulated | patients with reversible grade 4 ALT/AST elevation ([2]; dose escalation, single-agent therapy): 2/8 and 2 out of 8 | serum level reached ([2]; level hypothesized to inhibit EWS:Fli1 activity, not reached before adverse effects): < 50 nM | toxicity by serum chemistry or hematology studies ([3]; 5 consecutive days i.p. 1 mg/kg): no significant toxicity | death ([3]; 5 consecutive days i.p. 4 mg/kg): One mouse died | body weight ([3]; 5 consecutive days i.p. 4 mg/kg (p=0.0016)): progressive and significant body weight loss | morbidity ([3]; 5 consecutive days i.p. 4 mg/kg, day of harvest (day 6)): one mouse found to be moribund | outward signs of morbidity or toxicity ([3]; five i.v. injections on alternating days, 1 mg/kg or 2 mg/kg): no obvious outward signs of morbidity or toxicity | body weight ([3]; single i.p. injection, 1 mg/kg and 4 mg/kg, vs saline vehicle): no significant weight loss | toxicity by serum chemistry or hematology assays ([3]; single i.p. injection, 1 or 2 mg/kg): did not cause any toxicity | body weight ([3]; single i.v. 4 mg/kg, in comparison to equivalent dose of MANP (p=0.048)): significant decrease | death rate [3, 11]: 75% | mice that died [3, 11]: 6/8 | IC50 [4]: 90.4 nM | NR0B1 protein expression [5]: significantly suppressed | IC50 [6]: 9.3 nM | IC50 [7]: 6.2 nM | glucose level ([8]; 5 consecutive days i.p. 1 mg/kg, vs saline (p=0.005)): decreased | liver toxicity ([8]; 5x2 mg/kg (eq.) i.v. alternating days): led to hepatoxicity | decrease in glucose serum level [8, 12]: 1.9 fold | increase in ALT [8, 12]: 20.9 fold | increase in AST [8, 12]: 4.1 fold | increase in total bilirubin [8, 12]: 1.5 fold | decrease in glucose level [8, 13]: 1.9 fold | increase of alanine transaminase (ALT) [8, 13]: 16.9 fold | increase of aspartate aminotransferase (AST) [8, 13]: 5.4 fold | kidney injury or electrolyte imbalance ([8]; five i.v. injections on alternating days, any treatment group): no evidence of kidney injury or electrolyte imbalance | changes in serum chemistry ([8]; single i.p. 4 mg/kg): no significant changes | increase in ALT liver enzyme level ([8]; single i.v. 4 mg/kg, in comparison to equivalent dose of MANP (p=0.0381)): 1.7 fold | IC50 [9]: 10 nM | liver weight ([10]; 5 consecutive days i.p. 4 mg/kg, vs saline): liver weight reduction | liver weight ([10]; 5x2 mg/kg i.v. alternating days): liver weight reduction | liver histology ([10]; 5x4 mg/kg i.p.): periportal necrosis with central fatty degeneration, glycogen depletion and bile acid retention | liver histology, Hall's bile stain [10, 14]: retention of bile in large vacuoles | liver histology, Hematoxylin and Eosin stain [10, 14]: periportal hepatocellular necrosis and infiltrates of inflammatory cells, and distension of collecting ducts | liver histology, Periodic Acid-Schiff (glycogen) ([10]; five doses 2 mg/kg on alternating days): glycogen depletion
